PubChem BioAssay (NCI)
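Results reflect a 48-hour exposure of cells in 96-well plates to compound at five concentrations. GI50: concentration for 50% inhibition of growth. Definition used: TGI = concentration required for complete inhibition of growth.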

How the values were obtained:
Assay in all cases: growth of human tumour cells (NCI), 48 h
[1] = tested on: 786-0 renal
[2] = tested on: A498 renal
[3] = tested on: A549 NSCLC
[4] = tested on: ACHN renal
[5] = tested on: BT-549 breast
[6] = tested on: CAKI-1 renal
[7] = tested on: CCRF-CEM leukemia
[8] = tested on: COLO 205 colon
[9] = tested on: DU-145 prostate
[10] = tested on: EKVX NSCLC
[11] = tested on: HCC-2998 colon
[12] = tested on: HCT-116 colon
[13] = tested on: HCT-15 colon
[14] = tested on: HL-60(TB) leukemia
[15] = tested on: HOP-62 NSCLC
[16] = tested on: HOP-92 NSCLC
[17] = tested on: HS 578T breast
[18] = tested on: HT29 colon
[19] = tested on: IGROV1 ovarian
[20] = tested on: K-562 leukemia
[21] = tested on: KM12 colon
[22] = tested on: LOX IMVI melanoma
[23] = tested on: MALME-3M melanoma
[24] = tested on: MCF7 breast
[25] = tested on: MDA-MB-231 breast
[26] = tested on: MDA-MB-435
[27] = tested on: MOLT-4 leukemia
[28] = tested on: NCI-H226 lung
[29] = tested on: NCI-H23 lung
[30] = tested on: NCI-H460 lung
[31] = tested on: NCI-H522 lung
[32] = tested on: NCI/ADR-RES ovarian
[33] = tested on: OVCAR-3 ovarian
[34] = tested on: OVCAR-4 ovarian
[35] = tested on: OVCAR-5 ovarian
[36] = tested on: OVCAR-8 ovarian
[37] = tested on: PC-3 prostate
[38] = tested on: RPMI-8226 leukemia
[39] = tested on: RXF 393 renal
[40] = tested on: SF-268 CNS
[41] = tested on: SF-295 CNS
[42] = tested on: SF-539 CNS
[43] = tested on: SK-MEL-2 melanoma
[44] = tested on: SK-MEL-28 melanoma
[45] = tested on: SK-MEL-5 melanoma
[46] = tested on: SK-OV-3 ovarian
[47] = tested on: SN12C renal
[48] = tested on: SNB-19 CNS
[49] = tested on: SNB-75 CNS
[50] = tested on: SR leukemia
[51] = tested on: SW-620 colon
[52] = tested on: T-47D breast
[53] = tested on: TK-10 renal
[54] = tested on: U251 CNS
[55] = tested on: UACC-257 melanoma
[56] = tested on: UACC-62 melanoma
[57] = tested on: UO-31 renal

## CC(=O)OC[C@@]12Oc3c(cccc3-c3ccc(O)c4c3O[C@]3(COC(C)=O)C(=C4O)C(=O)C[C@H](C)[C@@H]3OC(C)=O)C(O)=C1C(=O)C[C@H](C)[C@@H]2OC(C)=O
[1]
  GI50: 33.5 µM
  TGI: > 100 µM
[2]
  GI50: 3.3 µM
  TGI: 48.4 µM
[3]
  GI50: 4.06 µM
  TGI: > 100 µM
[4]
  GI50: 30.3 µM
  TGI: > 100 µM
[5]
  GI50: 4.54 µM
  TGI: > 100 µM
[6]
  GI50: 28.6 µM
  TGI: > 100 µM
[7]
  GI50: 5.92 µM
  TGI: > 100 µM
[8]
  GI50: 19.7 µM
  TGI: 48.9 µM
[9]
  GI50: 10.8 µM
  TGI: > 100 µM
[10]
  GI50: 24.3 µM
  TGI: > 100 µM
[11]
  GI50: 6.13 µM
  TGI: > 100 µM
[12]
  GI50: 28.3 µM
  TGI: > 100 µM
[13]
  GI50: 5.45 µM
  TGI: > 100 µM
[14]
  GI50: 17.7 µM
  TGI: 56.6 µM
[15]
  GI50: 4.19 µM
  TGI: > 100 µM
[16]
  GI50: 5 µM
  TGI: 38.5 µM
[17]
  GI50: 3.77 µM
  TGI: > 100 µM
[18]
  GI50: 7.87 µM
  TGI: > 100 µM
[19]
  GI50: 7.12 µM
  TGI: > 100 µM
[20]
  GI50: 30.5 µM
  TGI: > 100 µM
[21]
  GI50: 27.5 µM
  TGI: > 100 µM
[22]
  GI50: 3.53 µM
  TGI: 12.9 µM
[23]
  GI50: 6.88 µM
  TGI: 56.5 µM
[24]
  GI50: 26.1 µM
  TGI: > 100 µM
[25]
  GI50: 25.5 µM
  TGI: > 100 µM
[26]
  GI50: 5.3 µM
  TGI: > 100 µM
[27]
  GI50: 10.9 µM
  TGI: > 100 µM
[28]
  GI50: 20.2 µM
  TGI: 63.5 µM
[29]
  GI50: 10.6 µM
  TGI: > 100 µM
[30]
  GI50: 4.83 µM
  TGI: > 100 µM
[31]
  GI50: 7.97 µM
  TGI: 46.4 µM
[32]
  GI50: 32.7 µM
  TGI: > 100 µM
[33]
  GI50: 13.9 µM
  TGI: > 100 µM
[34]
  GI50: 29.4 µM
  TGI: > 100 µM
[35]
  GI50: 29.3 µM
  TGI: > 100 µM
[36]
  GI50: 6.39 µM
  TGI: > 100 µM
[37]
  GI50: 15.3 µM
  TGI: > 100 µM
[38]
  GI50: 6.08 µM
  TGI: 46.1 µM
[39]
  GI50: 9.39 µM
  TGI: 50.5 µM
[40]
  GI50: 4.32 µM
  TGI: > 100 µM
[41]
  GI50: 6.92 µM
  TGI: 80.8 µM
[42]
  GI50: 3.97 µM
  TGI: > 100 µM
[43]
  GI50: 14.7 µM
  TGI: 63.9 µM
[44]
  GI50: 6.1 µM
  TGI: > 100 µM
[45]
  GI50: 4.76 µM
  TGI: 16.9 µM
[46]
  GI50: 25.5 µM
  TGI: 88.6 µM
[47]
  GI50: 6.98 µM
  TGI: > 100 µM
[48]
  GI50: 15.7 µM
  TGI: > 100 µM
[49]
  GI50: 2.53 µM
  TGI: 42.8 µM
[50]
  GI50: 3.68 µM
  TGI: > 100 µM
[51]
  GI50: 33.2 µM
  TGI: > 100 µM
[52]
  GI50: 18.5 µM
  TGI: > 100 µM
[53]
  GI50: 29.9 µM
  TGI: > 100 µM
[54]
  GI50: 4.08 µM
  TGI: > 100 µM
[55]
  GI50: 3.4 µM
  TGI: 31.4 µM
[56]
  GI50: 5.75 µM
  TGI: > 100 µM
[57]
  GI50: 23.9 µM
  TGI: > 100 µM
